Where two headings read alike, the source gives them in different places.
Legend:
[1] = test system: Serratia marcescens expressing IMP-1 (CL5741); assay: Antibiotic potentiation activity: synergistic concentration (MITC95) with imipenem, OD600 growth; type: cell-based; details: concentration giving 95% inhibition of bacterial growth
How it was run: (§1)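 Bacteria were grown overnight on agar at 35 °C, diluted 1:100 from saline into 1.1× CAMHB, then given compound with or without imipenem (4 μg/ml in assay, optionally 1 μg/ml). Endpoint: absorbance at 22–24 h.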

[2] = test system: Klebsiella pneumoniae expressing VIM-1 (IHMA599644); assay: as above; type: cell-based; details: concentration giving 95% inhibition of bacterial growth
How it was run: as §1

[3] = test system: Escherichia coli expressing NDM-1 (CLB30005); assay: as above; type: cell-based; details: concentration giving 95% inhibition of bacterial growth
How it was run: as §1

IMP-1 = IMP-1 (Serratia marcescens, UniProt P52699); assay: biochemical; type: biochemical; details: fluorescence assay with CCF2-FA substrate; read-out: IMP-1 IC50
Sequence of IMP-1 (P52699 whole entry, looked up): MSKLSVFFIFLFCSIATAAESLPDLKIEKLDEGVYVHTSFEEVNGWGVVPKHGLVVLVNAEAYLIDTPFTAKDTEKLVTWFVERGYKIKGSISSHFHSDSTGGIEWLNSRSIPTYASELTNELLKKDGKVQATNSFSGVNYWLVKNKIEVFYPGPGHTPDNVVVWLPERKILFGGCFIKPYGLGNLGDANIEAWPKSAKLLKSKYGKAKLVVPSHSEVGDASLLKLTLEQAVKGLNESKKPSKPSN

VIM-1 = VIM-1 (Pseudomonas aeruginosa (strain ATCC 15692 / DSM 22644 / CIP 104116 / JCM 14847 / LMG 12228 / 1C / PRS 101 / PAO1), UniProt A0A0F7KYQ8); assay: Enzyme activity: determination of IC50, fluorescence assay with CCF2-FA substrate (VIM-1); type: biochemical
NDM-1 = NDM-1 (Klebsiella pneumoniae, UniProt C7C422); assay: biochemical; type: biochemical; details: fluorescence assay with CCF2-FA substrate; read-out: NDM-1 IC50
Sequence of NDM-1 (C7C422 whole entry, looked up, species assumed): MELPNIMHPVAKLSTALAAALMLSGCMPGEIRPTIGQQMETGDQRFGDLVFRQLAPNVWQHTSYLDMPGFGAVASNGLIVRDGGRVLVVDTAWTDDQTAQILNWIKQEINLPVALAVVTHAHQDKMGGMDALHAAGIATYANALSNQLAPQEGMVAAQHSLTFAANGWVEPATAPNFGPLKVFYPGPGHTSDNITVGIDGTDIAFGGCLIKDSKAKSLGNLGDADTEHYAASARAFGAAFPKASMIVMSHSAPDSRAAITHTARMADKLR

[4] = fluorescence assay with CCF2-FA substrate, read-out: VIM-1 IC50
[5] = VIM-1 IC50, fluorescence assay with CCF2-FA substrate

Structure (SMILES)	Serratia marcescens expressing IMP-1 (CL5741) MITC95 [1] [µM]	Klebsiella pneumoniae expressing VIM-1 (IHMA 599644) MITC95 [2] [µM]	Escherichia coli expressing NDM-1 (CLB 30005) MITC95 [3] [µM]	IC50 (IMP-1) [nM]	IC50 (VIM-1; [4]) [nM]	IC50 (NDM-1) [nM]	IC50 (VIM-1; [5]) [nM]
NS(=O)(=O)c1cccc(C#CCC2CNCCO2)c1-c1nn[nH]n1 (stereo not drawn) [Example 145, 3-(3-morpholin-2-ylprop-1-yn-1-yl)-2-(2H-tetrazol-5-yl)benzenesulfonamide]	75	>200	0.7813	2410	6410	191	
NS(=O)(=O)c1cccc(C#Cc2cccnc2)c1-c1nn[nH]n1 [Example 147, 3-(pyridin-3-ylethynyl)-2-(2H-tetrazol-5-yl)benzenesulfonamide]	18.75	>200	3.125	103	1100	16.4	
NS(=O)(=O)c1cccc(C#CCN2CCS(=O)(=O)CC2)c1-c1nn[nH]n1 [Example 148, 3-[3-(1,1-dioxidothiomorpholin-4-yl)prop-1-yn-1-yl]-2-(2H-tetrazol-5-yl)benzenesulfonamide]	50	>200	6.25	550	3080	131	
CS(=O)(=O)N1CCC(c2cccc(S(N)(=O)=O)c2-c2nn[nH]n2)CC1 [Example 172, 3-(1-(methylsulfonyl)piperidin-4-yl)-2-(2H-tetrazol-5-yl)benzenesulfonamide]	18.75	100	4.688	720	421	16.5	
CCOC(=O)N1CCC(c2cccc(S(N)(=O)=O)c2-c2nn[nH]n2)CC1 [Example 173, ethyl 4-(3-sulfamoyl-2-(2H-tetrazol-5-yl)phenyl)piperidine-1-carboxylate]	6.25	>200	4.688	149		4.39	85.6
CCNC(=O)N1CCC(c2cccc(S(N)(=O)=O)c2-c2nn[nH]n2)CC1 [Example 174, N-ethyl-4-(3-sulfamoyl-2-(2H-tetrazol-5-yl)phenyl)piperidine-1-carboxamide]	12.5	100	2.344	403	262	4.54	
NS(=O)(=O)c1cccc(C2CCCNC2)c1-c1nn[nH]n1 (stereo not drawn) [Example 175, 3-(piperidin-3-yl)-2-(2H-tetrazol-5-yl)benzenesulfonamide]	37.5	75	0.7813	12400	3090	552	
NS(=O)(=O)c1cccc(C2CCCN(C(=O)C3CC3)C2)c1-c1nn[nH]n1 (stereo not drawn) [Example 177, 3-(1-(cyclopropanecarbonyl)piperidin-3-yl)-2-(2H-tetrazol-5-yl)benzenesulfonamide]	37.5	>200	6.25	668	733	12.8	
COC(=O)c1ccc(-c2ccnc(S(N)(=O)=O)c2-c2nnn[nH]2)cc1 [Example 182, Methyl 4-(2-sulfamoyl-3-(1H-tetrazol-5-yl)pyridin-4-yl)benzoate]	100	200	4.688	348		32.4	91.4
NS(=O)(=O)c1nccc(-c2ccc(C(=O)O)cc2)c1-c1nnn[nH]1 [Example 183, 4-(2-Sulfamoyl-3-(1H-tetrazol-5-yl)pyridin-4-yl)benzoic acid]	50	75	4.688	339		11.5	173
NC(=O)c1ccc(-c2ccnc(S(N)(=O)=O)c2-c2nnn[nH]2)cc1 [Example 184, 4-(2-Sulfamoyl-3-(1H-tetrazol-5-yl)pyridin-4-yl)benzamide]	37.5	25	0.5859	602	164	66.9	
NS(=O)(=O)c1nccc(-c2ccc(C(=O)NC3CC3)cc2)c1-c1nnn[nH]1 [Example 185, N-Cyclopropyl-4-(2-sulfamoyl-3-(1H-tetrazol-5-yl)pyridin-4-yl)benzamide]	75	>200	2.344	1480	2020	135	
NS(=O)(=O)c1nccc(-c2ccc(C3CCOCC3)cc2)c1-c1nnn[nH]1 [Example 187, 4-(4-(Tetrahydro-2H-pyran-4-yl)phenyl)-3-(1H-tetrazol-5-yl)pyridine-2-sulfonamide]	25	>200	15.63	28.9	150	2.81	
NS(=O)(=O)c1ccnc(-c2ccc(CO)cc2)c1-c1nnn[nH]1 [Example 188, 2-(4-(Hydroxymethyl)phenyl)-3-(1H-tetrazol-5-yl)pyridine-4-sulfonamide]	37.5	>200	2.344	768	4130	36.5	
Cc1ccc(-c2ccnc(S(N)(=O)=O)c2-c2nnn[nH]2)cc1 [Example 190, 3-(1H-Tetrazol-5-yl)-4-(p-tolyl)pyridine-2-sulfonamide]	100	>200	10.42	3150	1300	232	
NS(=O)(=O)c1nccc(-c2ccc3c(c2)CNC3=O)c1-c1nnn[nH]1 [Example 192, 4-(1-oxoisoindolin-5-yl)-3-(1H-tetrazol-5-yl)pyridine-2-sulfonamide]	50	50	1.953	439	98.1	36.4	
NS(=O)(=O)c1nccc(-c2ccncc2)c1-c1nnn[nH]1 [Example 194, 3-(1H-tetrazol-5-yl)-[4,4′-bipyridine]-2-sulfonamide]	75	62.5	0.7813	2270	907	248	
NS(=O)(=O)c1nccc(-c2ccc(CO)nc2)c1-c1nnn[nH]1 [Example 195, 6-(hydroxymethyl)-3′-(1H-tetrazol-5-yl)-[3,4′-bipyridine]-2′-sulfonamide]	50	12.5	0.3906	2630	291	78.5	
